The source of these data is ChEMBL document CHEMBL1148194, “Dysinosins B-D, inhibitors of factor VIIa and thrombin from the Australian sponge Lamellodysidea chlorea” (J Nat Prod, 2004).

Some results are limits rather than exact numbers.

The target of one assay is T1, Coagulation factor VII (Homo sapiens, UniProt P08709).
T1 sequence (P08709 whole entry): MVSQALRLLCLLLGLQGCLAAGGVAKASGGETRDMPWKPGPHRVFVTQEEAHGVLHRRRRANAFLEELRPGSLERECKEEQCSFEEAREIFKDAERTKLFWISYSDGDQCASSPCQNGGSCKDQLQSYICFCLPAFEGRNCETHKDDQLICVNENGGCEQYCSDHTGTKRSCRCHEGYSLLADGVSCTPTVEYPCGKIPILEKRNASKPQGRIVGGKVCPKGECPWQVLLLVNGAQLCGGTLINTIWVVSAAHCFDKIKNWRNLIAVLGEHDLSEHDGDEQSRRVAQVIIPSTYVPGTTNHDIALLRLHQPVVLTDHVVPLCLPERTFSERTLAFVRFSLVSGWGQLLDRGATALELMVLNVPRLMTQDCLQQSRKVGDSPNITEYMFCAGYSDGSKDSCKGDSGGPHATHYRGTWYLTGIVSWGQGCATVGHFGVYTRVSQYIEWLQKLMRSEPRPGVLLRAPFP
The assay is described as follows: Inhibition of factor 7a by spectrophotometric assay.

For the next assay, the target named is Prothrombin (Homo sapiens, UniProt P00734). The assay is described as follows: Inhibition of thrombin by spectrophotometric assay.

In general, Ki refers to a dissociation constant, usually derived from enzyme kinetics or from competition with a known ligand. `CO[C@H](COS(=O)(=O)[O-])C(=O)N[C@H](CC(C)C)C(=O)N1[C@H](C(=O)NCCC2=CC[N+](=C(N)N)C2)C[C@@H]2C[C@H](O)[C@@H](O)C[C@@H]21` [DYSINOSIN A]: the Ki at Coagulation factor VII amounted to 108 nM; at Prothrombin, 452 nM.
For `CO[C@H](COS(=O)(=O)[O-])C(=O)N[C@H](C(=O)N1[C@H](C(=O)NCCC2=CC[N+](=C(N)N)C2)C[C@@H]2C[C@H](O)[C@@H](O[C@H]3O[C@H](CO)[C@@H](O)[C@H](O)[C@H]3O)C[C@@H]21)C(C)C` [DYSINOSIN B], the inhibition constant (Ki) on Coagulation factor VII was determined as 90 nM; on Prothrombin, 170 nM.
In the same order, the values of `CO[C@H](COS(=O)(=O)[O-])C(=O)N[C@H](C(=O)N1[C@H](C(=O)NCCC2=CC[N+](=C(N)N)C2)C[C@@H]2C[C@H](O)[C@@H](O)C[C@@H]21)C(C)C` [DYSINOSIN C] are 124 nM and 550 nM.
In the same order, the values of `CO[C@H](CO)C(=O)N[C@H](C(=O)N1[C@H](C(=O)NCCC2=CC[N+](=C(N)N)C2)C[C@@H]2C[C@H](O)[C@@H](O)C[C@@H]21)C(C)C` [DYSINOSIN D] are 1320 nM and over 5100 nM.
